Test results from PubChem BioAssay (NCI).
In brackets after ≈: the same amount, converted by molar mass. Several values for one entry are separate records, joined by “and”; a condition that tells them apart may be missing. Equal values may be shown once.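 Dose response: 5 concentrations. Exposure: 48 h. Format: 96-well plates. Endpoint: linear interpolation; highest concentration if not reached. Abbreviation: GI50, concentration required for 50% inhibition of growth. At the TGI there is no net growth.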 Non-standard residues stand in square brackets, D forms with d. Residues, ends and D or L forms follow the SMILES beside them. *: point of attachment. ONb = O=[N+]([O-])c1ccc(CO*)cc1; AllylGly = C=CC[CH](N)C(=O)O; Boc = CC(C)(C)OC(=O)*

Columns and labels:
Assay in all cases: DTP human tumour cell line panel, 48 h
[1] = tested on: HL-60(TB) leukemia
[2] = tested on: SK-MEL-2 melanoma
[3] = tested on: SR leukemia
[4] = tested on: MALME-3M melanoma
[5] = tested on: U251 CNS
[6] = tested on: A498 renal
[7] = tested on: CCRF-CEM leukemia
[8] = tested on: SNB-19 CNS
[9] = tested on: HCT-116 colon
[10] = tested on: DU-145 prostate

| Compound | GI50 [1] | GI50 [2] | TGI [2] | GI50 [3] | GI50 [4] | TGI [4] | GI50 [5] | GI50 [6] | TGI [6] | GI50 [7] | TGI [8] | TGI [1] | TGI [3] | TGI [5] | TGI [7] | GI50 [8] | GI50 [9] | TGI [9] | GI50 [10] | TGI [10] |
| --- | --- | --- | --- | --- | --- | --- | --- | --- | --- | --- | --- | --- | --- | --- | --- | --- | --- | --- | --- | --- |
| C=CCC(NC(=O)OC(C)(C)C)C(=O)NC(CCC(=O)OCc1ccc([N+](=O)[O-])cc1)C(N)=O (configuration not stated) (Boc-[AllylGly]-Glu(ONb)-NH2; configuration not given here) | 53.1 µg/mL | 26.5 µg/mL (≈ 55.4 µM) | 68.8 µg/mL | 47.8 µg/mL | 18.4 µg/mL | 33.1 µg/mL | 65.2 µg/mL | 13.4 µg/mL | 27.9 µg/mL | 31.8 µg/mL | – | – | – | – | – | – | – | – | – | – |
| CC1=C(C)C(=O)c2c(cc3ccc4ccccc4n23)C1=O | – | – | – | – | – | > 100 µM | – | – | > 100 µM | – | > 100 µM | > 100 µM | > 100 µM | > 100 µM | > 100 µM | – | – | – | – | – |
| N#Cc1c(Sc2ccccc2N)cccc1Sc1ccccc1N | 16400 nM | – | – | 56.8 µM | 25.3 µM | – | 35.6 µM | – | – | 20.9 µM | – | – | – | – | – | 97.5 µM | 71.9 µM | – | – | – |
| O=C(O)c1c(-c2cccc3ccccc23)sc(-c2cccc3ccccc23)c1C(=O)O | – | – | > 100 µM | – | – | > 100 µM | – | – | – | – | > 100 µM | > 100 µM | > 100 µM | > 100 µM | > 100 µM | – | – | > 100 µM | – | – |
| CC1OC(OCC2OC(Oc3c(-c4ccc(O)cc4)oc4cc(O)cc(O)c4c3=O)C(OC3OCC(O)(CO)C3O)C(O)C2O)C(O)C(O)C1O (configuration not stated) | – | – | > 100 µM | – | – | > 100 µM | – | – | > 100 µM | – | > 100 µM | 38.7 µM | > 100 µM | > 100 µM | > 100 µM | – | – | > 100 µM | – | – |
| Cc1ccc(OCC(=O)N2N=C(c3ccccc3)CC2(O)c2ccccc2)cc1 (configuration not stated) | – | – | > 100 µM | – | – | > 100 µM | – | – | – | – | > 100 µM | > 100 µM | > 100 µM | 34.1 µM | – | – | – | > 100 µM | – | – |
| COc1cc(CCc2ccc(OCCN(C)C)cc2)cc(OC)c1OC | – | – | – | – | – | > 100 µM | – | – | > 100 µM | – | > 100 µM | > 100 µM | > 100 µM | > 100 µM | > 100 µM | – | – | > 100 µM | – | – |
| CC[C@H](C)N(CCN)C(=O)c1cc2ccccc2c(-c2ccccc2Cl)n1 | – | – | 33.5 µM | – | – | – | – | – | 17.4 µM | – | 30.2 µM | 23.1 µM | 28.1 µM | 24.4 µM | 15.7 µM | – | – | 14.9 µM | – | – |
| O=C(O)CSc1n[nH]c(-c2ccc(O)cc2)n1 | – | – | > 100 µM | – | – | > 100 µM | – | – | > 100 µM | – | > 100 µM | > 100 µM | > 100 µM | > 100 µM | > 100 µM | – | – | > 100 µM | – | – |
| O=C(c1ccccc1)C(C(=O)c1ccccc1)C1(O)C(=O)c2ccccc2C1=O | – | – | > 100 µM | – | – | 96.6 µM | – | – | > 100 µM | – | > 100 µM | 46.9 µM | > 100 µM | > 100 µM | 83 µM | – | – | – | – | – |
| O=C(CNc1nncs1)NO | – | – | > 100 µM | – | – | > 100 µM | – | – | > 100 µM | – | > 100 µM | > 100 µM | – | > 100 µM | – | – | – | > 100 µM | – | – |
| N#Cc1cn(C2OC(CO)C(O)C2O)c2ncnc(N)c12 (configuration not stated) | 45 nM | – | – | – | – | – | 0.0276 µM | 45 nM | 1.51 µM and 0.634 µM | 0.045 µM | – | – | > 100 µM | – | 0.216 µM and 0.84 µM and 0.0961 µM | – | 0.0264 µM and < 0.01 µM | > 100 µM | – | – |
| COc1ccc(-c2nc3sc(C)cn3c2/C=C/C(=O)c2cc(OC)c(OC)c(OC)c2)cc1 | 2490 nM | – | – | – | – | – | 4.04 µM | – | – | 3.06 µM | > 100 µM | 7.48 µM | – | > 100 µM | > 100 µM | 4.55 µM | 3.8 µM | > 100 µM | 3.69 µM | > 100 µM |
| CC1=C(C(=O)Nc2ccccc2C)C(c2ccccc2)C(C(=O)Nc2ccccc2C)=C(C)N1 | – | – | 93 µM | – | – | > 100 µM | – | – | > 100 µM | – | > 100 µM | 43.3 µM | 42.5 µM | > 100 µM | 73.9 µM | – | – | > 100 µM | – | – |
| CCOc1ccccc1NC(=O)C(=O)CC(=O)c1c(C)n([O-])c2ccccc2[n+]1=O | – | – | > 100 µM | – | – | > 100 µM | – | – | > 100 µM | – | > 100 µM | > 100 µM | – | > 100 µM | > 100 µM | – | – | > 100 µM | – | – |
| CC1=C(C(=O)Nc2c(C)cccc2C)C(c2ccc3c(c2)OCO3)C(C(=O)Nc2c(C)cccc2C)=C(C)N1 | – | – | – | – | – | 45.7 µM | – | – | – | – | 32 µM | 56.1 µM | 90.9 µM | 29.1 µM | 41.9 µM | – | – | 27.3 µM | – | – |
| Cc1nc2c(nc1C)C(=O)c1cc(O)ccc1C2=O | – | – | > 100 µM | – | – | 43.7 µM | – | – | > 100 µM | – | > 100 µM | > 67.3 µM | > 100 µM | > 100 µM | > 100 µM | – | – | > 100 µM | – | – |
